Experimental data: US20110256565A1, “METHODS FOR DIAGNOSIS AND TREATMENT OF NEURODEGENERATIVE DISEASES OR DISORDERS” (priority 2008, published 2011)

How the values were obtained:
GSK3B = GSK3B (Homo sapiens, UniProt P49841); settings: cited from earlier work
neuroblastoma cells = settings: cited from earlier work
PS-mutant MEFs = assay: Cinnamycin sensitivity, live/dead assay in MEFs; format: cell-based, mouse; settings: PS-mutant MEFs vs. control MEFs; 1 μM cinnamycin for 10 min at 37° C., live/dead assay (FIG. 41D)
Protocol: FIG. 41. Phospholipid synthesis in MEFs. FIG. 41A: Synthesis of PtdSer and PtdEtn after 3H-Ser labeling for the indicated times (hours) (n=3). FIG. 41B: Pulse-chase. MEFs labeled for 1 h with 3H-Ser; chase with cold Ser (n=3). FIG. 41C: Phospholipid synthesis in crude mitochondria (n=3 or 4) Error bars, SE; p<0.05. FIG. 41D: Cinnamycin sensitivity in MEFs. Left: Live/dead assay (1 μM cinnamycin for 10 min at 37° C.). Right: Cinnamycin-sensitivity assay (10 min at 37° C.).
AD patients have aberrant phospholipid profiles, both in fibroblasts and in brain (Pettegrew et al., (2001) Neurochem. Res. 26, 771-782; Murphy et al., (2006) Brain Res. Bull. 69, 79-85). PtdSer and PtdEtn are exported to the inner leaflet of the plasma membrane (Vance (2008) J. Lipid Res. 49, 1377-1387). […] Both the 3H-Ser and cinnamycin results are relevant to the pathogenesis of AD.
Cinnamycin sensitivity assays. To measure cinnamycin binding (Emoto et al. (1999) Proc. Natl. Acad. Sci. USA 96:12400-12405), cells are incubated with 125I-labeled streptavidin complexed with cinnamycin (Ro 09-0198) peptide complex (1251-SA-Cin; 50,000 cpm/ml; Sigma) for 1 h at 39.5° C. The radioactivities of 125I-SA-Cin bound to the cells is analyzed by bioimage analyzer. […] Viability will be measured by “live/dead” assay (Molecular Probes).

[1] = test system: fibroblasts from FAD patients with pathogenic mutations in PS1 and from sporadic AD (SAD) patients; assay: Cinnamycin sensitivity, Live/Dead assay in patient fibroblasts; format: cell-based, human; settings: 1 μM cinnamycin for 10 min at 37° C.; fibroblasts from SAD patients (FIG. 43)
Protocol: FIG. 43. Cinnamycin sensitivity in fibroblasts from FAD patients with pathogenic mutations in PS1 (PS1) and from sporadic AD (SAD) patients. Cells were treated with 1 μM cinnamycin for 10 min at 37° C., and viabitlity was monitored by Live/Dead assay.

human erythrocytes = settings: incubation time ~2 min, 37° C., read-out: LC50 (concentration to kill 50% of the cells); cited from earlier work

Sequence of GSK3B (P49841 whole entry, species assumed): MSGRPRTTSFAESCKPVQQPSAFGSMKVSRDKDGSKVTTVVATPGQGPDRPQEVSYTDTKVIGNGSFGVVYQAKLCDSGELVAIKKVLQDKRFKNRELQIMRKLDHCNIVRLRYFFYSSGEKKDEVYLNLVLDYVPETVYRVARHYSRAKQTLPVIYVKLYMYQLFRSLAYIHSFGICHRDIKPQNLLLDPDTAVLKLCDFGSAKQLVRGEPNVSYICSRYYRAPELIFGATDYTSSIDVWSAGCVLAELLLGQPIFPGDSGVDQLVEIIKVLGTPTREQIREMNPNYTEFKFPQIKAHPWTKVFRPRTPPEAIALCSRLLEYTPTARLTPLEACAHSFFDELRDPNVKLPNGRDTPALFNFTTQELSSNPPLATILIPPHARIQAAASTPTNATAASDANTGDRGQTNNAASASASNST

Compound: Cn1sc(=O)n(Cc2ccccc2)c1=O [TDZD-8]
- Effect on GSK3B activity (GSK3B): inhibit GSK3B activity

Compound: O=C1NC(=O)C(c2ccccc2[N+](=O)[O-])=C1Nc1ccc(O)c(Cl)c1 [SB415286]
- Effect on neurite outgrowth (neuroblastoma cells): inhibit neurite outgrowth

Compound: cinnamycin
- Sensitivity to cinnamycin vs. controls (PS-mutant MEFs): more sensitive
- Cinnamycin sensitivity (viability by Live/Dead assay) [1]: cinnamycin sensitivity in the SAD patients
- CC50 (human erythrocytes): ~1000 µM
